From patent publication US20240059703A1 (AMGEN INC., priority 2021, published 2024)

Each molecule was assayed against KRAS G12C (Homo sapiens (Human), UniProt P01116, C118A/G12C) (assay: 2 h coupled exchange assay). Details: Avg 2 h Coupled exchange IC50, 2 h compound pre-incubation.
Type: biochemical
Description: The term “2 h coupled exchange assay” or “20 h coupled exchange assay” as used herein refers to the assay described in the Section entitled “BIOLOGICAL EVALUATION.”

KRAS G12C, sequence (P01116 other isoform, or with tags, fused parts or gaps G12C/C118A): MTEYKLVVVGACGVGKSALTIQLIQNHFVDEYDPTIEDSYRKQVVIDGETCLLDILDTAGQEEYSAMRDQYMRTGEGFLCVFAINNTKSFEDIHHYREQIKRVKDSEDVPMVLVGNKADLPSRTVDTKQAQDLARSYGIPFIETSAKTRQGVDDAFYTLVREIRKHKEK

SMILES	IC50
C=CC(=O)N1CC2(CCN(c3nc4cc(-c5ccn[nH]5)ccc4c(-c4ccccc4Cl)c3C#N)C2)C1 [Example 17-8, 4-(2-chlorophenyl)-2-(2-(2-propenoyl)-2,6-diazaspiro[3.4]octan-6-yl)-7-(1H-pyrazol-3-yl)-3-quinolinecarbonitrile]	571 nM
C=CC(=O)N1CC2(CCN(c3nc4c(c(-c5c(C)ccc6[nH]ncc56)c3C)COC(C)(C)C4)C2)C1 (single isomer, unassigned) [Example 14-34, (M)-1-(6-(3,7,7-trimethyl-4-(5-methyl-1H-indazol-4-yl)-7,8-dihydro-5H-pyrano[4,3-b]pyridin-2-yl)-2,6-diazaspiro[3.4]octan-2-yl)-2-propen-1-one]	7590 nM
C=CC(=O)N1CC2(CCN(c3nc4c(c(-c5c(C)ccc6cnn(C)c56)c3F)COC(C)(C)C4)C2)C1 [Example 14-71, 1-(6-(4-(1,6-dimethyl-1H-indazol-7-yl)-3-fluoro-7,7-dimethyl-7,8-dihydro-5H-pyrano[4,3-b]pyridin-2-yl)-2,6-diazaspiro[3.4]octan-2-yl)-2-propen-1-one]	781 nM
C=CC(=O)N1CC2(CCN(c3nc4cc(-c5ccnn5C)ccc4c(-c4c(O)cccc4F)c3C)C2)C1 [Example 16-10, 1-(6-(4-(2-fluoro-6-hydroxyphenyl)-3-methyl-7-(1-methyl-1H-pyrazol-5-yl)-2-quinolinyl)-2,6-diazaspiro[3,4]octan-2-yl)-2-propen-1-one]	260 nM
C=CC(=O)N1CC2(CCN(c3nc4c(c(-c5c(C)ccc6cn[nH]c56)c3C#N)COC(C)(C)C4)C2)C1 (single isomer, unassigned) [Example 14-82, (M)-7,7-dimethyl-4-(6-methyl-1H-indazol-7-yl)-2-(2-(2-propenoyl)-2,6-diazaspiro[3.4]octan-6-yl)-7,8-dihydro-5H-pyrano[4,3-b]pyridine-3-carbonitrile]	5760 nM
C=CC(=O)N1CC2(CCN(c3nc4ccccc4c(-c4c(C)c(Cl)cc5cnn(C)c45)c3C#N)C2)C1 [Example 14-90, 4-(5-chloro-1,6-dimethyl-1H-indazol-7-yl)-2-(2-(2-propenoyl)-2,6-diazaspiro[3.4]octan-6-yl)-3-quinolinecarbonitrile]	148 nM
C=CC(=O)N1CC2(CCN(c3nc4cc(-c5ocnc5C)ccc4c(-c4ccccc4F)c3C#N)C2)C1 [Example 17-10, 4-(2-fluorophenyl)-7-(4-methyl-1,3-oxazol-5-yl)-2-(2-(2-propenoyl)-2,6-diazaspiro[3.4]octan-6-yl)-3-quinolinecarbonitrile]	570 nM
C=CC(=O)N1CC2(CCN(c3nc4cc(-c5ccnn5C)ccc4c(-c4ccccc4F)c3C)C2)C1 [Example 16-4, 1-(6-(4-(2-fluorophenyl)-3-methyl-7-(1-methyl-1H-pyrazol-5-yl)-2-quinolinyl)-2,6-diazaspiro[3,4]octan-2-yl)-2-propen-1-one]	644 nM

Same assay, conditions: Avg 2 h Coupled exchange IC50, 2 h compound pre-incubation, SOS-mediated nucleotide exchange

SMILES	IC50
C=CC(=O)N1CC2(CCN(c3nc4c(c(-c5c(C)ccc6cnn(C)c56)c3C#N)C[C@H]3C[C@@H]4C3(C)C)[C@H]2CO)C1 [Example 13-62, (1R,9R)-6-(1,6-dimethyl-1H-indazol-7-yl)-4-((5R)-5-(hydroxymethyl)-2-(2-propenoyl)-2,6-diazaspiro[3.4]octan-6-yl)-10,10-dimethyl-3-azatricyclo[7.1.1.0^2,7]undeca-2,4,6-triene-5-carbonitrile]	334 nM
C=CC(=O)N1CC2(CCN(c3nc4c(c(-c5c(C)ccc6cnn(C)c56)c3C#N)CO[C@H](C3CC3)C4)C2)C1 (single isomer, unassigned) [Example 13-120]	9190 nM
C=CC(=O)N1CC2(CCN(c3nc4c(c(-c5c(C)ccc6[nH]ncc56)c3Cl)COC(C)(C)C4)C2)C1 (single isomer, unassigned) [Example 2-85, (M)-1-(6-(3-chloro-7,7-dimethyl-4-(5-methyl-1H-indazol-4-yl)-7,8-dihydro-5H-pyrano[4,3-b]pyridin-2-yl)-2,6-diazaspiro[3.4]octan-2-yl)-2-propen-1-one]	12600 nM
C=CC(=O)N1CC2(CCN(c3nc4c(c(-c5c(C)ccc6cn[nH]c56)c3C)CCC(C)(C)C4)C2)C1 (single isomer, unassigned) [Example 2-24, (P)-1-(6-(3,7,7-trimethyl-4-(6-methyl-1H-indazol-7-yl)-5,6,7,8-tetrahydro-2-quinolinyl)-2,6-diazaspiro[3.4]octan-2-yl)-2-propen-1-one]	119 nM
C=CC(=O)N1CC2(CCN(c3nc4c(c(-c5scnc5C)c3C#N)CCC(c3ccnn3C)C4)C2)C1 [Example 13-27, (7S)-7-(1-methyl-1H-pyrazol-5-yl)-4-(4-methyl-1,3-thiazol-5-yl)-2-(2-(2-propenoyl)-2,6-diazaspiro[3.4]octan-6-yl)-5,6,7,8-tetrahydro-3-quinolinecarbonitrile|(7R)-7-(1-methyl-1H-pyrazol-5-yl)-4-(4-methyl-1,3-thiazol-5-yl)-2-(2-(2-propenoyl)-2,6-diazaspiro[3.4]octan-6-yl)-5,6,7,8-tetrahydro-3-quinolinecarbonitrile]	231 nM
C=CC(=O)N1CC2(CCN(c3nc4c(c(-c5c(C)ccc6cnn(C)c56)c3C#N)COC(C)(C)C4)C2)C1 (single isomer, unassigned) [Example 13-59, (M)-4-(1,6-dimethyl-1H-indazol-7-yl)-7,7-dimethyl-2-(2-(2-propenoyl)-2,6-diazaspiro[3.4]octan-6-yl)-7,8-dihydro-5H-pyrano[4,3-b]pyridine-3-carbonitrile]	32200 nM
C=CC(=O)N1CC2(CCN(c3nc4c(c(-c5cc(Cl)cc6cc[nH]c56)c3C#N)COC(C)(C)C4)C2)C1 [Example 12-7, 4-(5-chloro-1H-indol-7-yl)-7,7-dimethyl-2-(2-(2-propenoyl)-2,6-diazaspiro[3.4]octan-6-yl)-7,8-dihydro-5H-pyrano[4,3-b]pyridine-3-carbonitrile]	435 nM
C=CC(=O)N1CC2(CCN(c3nc4c(c(-c5cc(O)ccc5Cl)c3C#N)C[C@H]3C[C@@H]4C3(C)C)C2)C1 (single isomer, unassigned) [Example 2-75]	454 nM
C=CC(=O)N1CC2(CCN(c3nc4c(c(-c5c(Cl)ccc6ccn(C)c56)c3C#N)COC(C)(C)C4)C2)C1 [Example 12-14, 4-(6-chloro-1-methyl-1H-indol-7-yl)-7,7-dimethyl-2-(2-(2-propenoyl)-2,6-diazaspiro[3.4]octan-6-yl)-7,8-dihydro-5H-pyrano[4,3-b]pyridine-3-carbonitrile]	246 nM
C=CC(=O)N1CC2(CCN(c3nc4c(c(-c5c(C)c(C)cc6cnn(C)c56)c3C)CCN(C(C)C)C4)C2)C1 [Example 12-25, 1-(6-(3-methyl-7-(2-propanyl)-4-(1,5,6-trimethyl-1H-indazol-7-yl)-5,6,7,8-tetrahydro-1,7-naphthyridin-2-yl)-2,6-diazaspiro[3.4]octan-2-yl)-2-propen-1-one]	141 nM
C=CC(=O)N1CC2(CCN(c3cc4c(c(-c5c(C)ccc6[nH]ncc56)c3C#N)COCC4)C2)C1 (single isomer, unassigned) [Example 2-99, (M)-8-(5-methyl-1H-indazol-4-yl)-6-(2-(2-propenoyl)-2,6-diazaspiro[3.4]octan-6-yl)-3,4-dihydro-1H-2-benzopyran-7-carbonitrile]	4390 nM
C=CC(=O)N1CC2(CCN(c3nc4c(c(-c5c(O)cccc5Cl)c3C#N)C[C@H]3C[C@@H]4C3)C2)C1 (single isomer, unassigned) [Example 13-66]	76000 nM
C=CC(=O)N1CC2(CCN(c3nc4c(c(-c5ccccc5Cl)c3C#N)CC(C)(C)C4)C2)C1 [Example 13-23, 4-(2-chlorophenyl)-6,6-dimethyl-2-(2-(2-propenoyl)-2,6-diazaspiro[3.4]octan-6-yl)-6,7-dihydro-5H-cyclopenta[b]pyridine-3-carbonitirle]	769 nM
C=CC(=O)N1CC2(CCN(c3nc4c(c(-c5c(Cl)ccc6[nH]ccc56)c3C#N)COC(C)(C)C4)C2)C1 [Example 12-16, 4-(5-chloro-1H-indol-4-yl)-7,7-dimethyl-2-(2-(2-propenoyl)-2,6-diazaspiro[3.4]octan-6-yl)-7,8-dihydro-5H-pyrano[4,3-b]pyridine-3-carbonitrile]	242 nM
C=CC(=O)N1CC2(CCN(c3nc4c(c(-c5cccc6[nH]ccc56)c3C#N)C[C@H]3C[C@@H]4C3(C)C)C2)C1 [Example 12-42, (1R,9R)-6-(1H-indol-4-yl)-10,10-dimethyl-4-(2-(2-propenoyl)-2,6-diazaspiro[3.4]octan-6-yl)-3-azatricyclo[7.1.1.0^2,7] undeca-2,4,6-triene-5-carbonitrile]	878 nM
C=CC(=O)N1CC2(CCN(c3nc4c(c(-c5c(C)ccc6cnn(C)c56)c3C#N)COC4(C)C)C2)C1 (single isomer, unassigned) [Example 13-56, (P)-4-(1,6-dimethyl-1H-indazol-7-yl)-,7,7-dimethyl-2-(2-(2-propenoyl)-2,6-diazaspiro[3.4]octan-6-yl)-5,7-dihydrofuro[3,4-b]pyridine-3-carbonitrile]	141000 nM
C=CC(=O)N1CC2(CCN(c3cn4ccnc4c(-c4cc(O)ccc4C)c3C#N)C2)C1 [Example 1-29, 8-(5-hydroxy-2-methylphenyl)-6-(2-(2-propenoyl)-2,6-diazaspiro[3.4]octan-6-yl)imidazo[1,2-a]pyridine-7-carbonitrile]	3530 nM
C=CC(=O)N1CC2(CCN(c3nc4c(c(-c5ncc(Cl)c6ccccc56)c3C#N)COC(C)(C)C4)C2)C1 [Example 12-30, 4-(4-chloro-1-isoquinolinyl)-7,7-dimethyl-2-(2-(2-propenoyl)-2,6-diazaspiro[3.4]octan-6-yl)-7,8-dihydro-5H-pyrano[4,3-b]pyridine-3-carbonitrile]	438 nM

Same assay, conditions: read-out: Avg 2 h Coupled exchange IC50, 2 h compound pre-incubation

SMILES	IC50
C=CC(=O)N1CC2(CCN(c3nc4ccccc4c(-c4c(C)ccc5[nH]ncc45)c3C=C)C2)C1 (atropisomer, axis not shown; (M)) [Example 26-2, (M)-1-(6-(3-ethenyl-4-(5-methyl-1H-indazol-4-yl)-2-quinolinyl)-2,6-diazaspiro[3.4]octan-2-yl)-2-propen-1-one]	34600 nM
